Reference: patent US20090176794A1, “1H-INDOL-1-YL-UREA COMPOUNDS” (LES LABORATOIRES SERVIER, priority 2008, published 2009)

Tests used:
[1] = test system: tyrosine hydroxylase (TH) protein in the locus coeruleus (LC); experiment: Induction of tyrosine hydroxylase in the locus coeruleus after i.p. injection; type: in vivo; details: i.p. 20 mg/kg, three days after single injection, Balb/C mouse; for amount of TH in LC section 1, relative to the mean value of the control group: LC section 1 (anterior-to-posterior)
From the text: A search is made among the compounds for those which are capable of bringing about an increase in the tyrosine hydroxylase (TH) protein in the locus coeruleus (LC) of the brain of the Balb/C mouse.
The animals used are male mice of the pure Balb/C strain (Charles River Laboratories) aged from 7 to 8 weeks at the time of treatment.
The mice are given a single injection, by the intraperitoneal route, of the compound under test, dissolved in 0.04M HCl solution (corresponding control: […]), if the compound is sufficiently soluble, or in olive oil 90%/DMSO 10% (corresponding control: olive oil 90%/DMSO 10%) for compounds that are insoluble in an aqueous medium.
Three days after the injection of each compound, all the animals are sacrificed by decapitation. The brains are removed and then frozen in liquid nitrogen and stored at −80° C.
Coronal sections 8 microns thick are taken along the posterior-anterior axis of the LC and fixed. The sections are transferred onto Immobilon-P membranes. The TH is measured by immunodetection and image analysis.

[2] = target: T1, ERK2 (Homo sapiens, UniProt P28482); experiment: Biacore direct interaction with recombinant ERK2; type: binding
From the text: (§1) Various forms of non-phosphorylated recombinant ERK (ERK1 and ERK2) and of phosphorylated recombinant ERK (p-ERK1 and p-ERK2) are fixed separately on “chips” and studied in the Biacore® system. The direct interaction of the compound of Example 1 at different concentrations is studied. • 2. Results

[3] = target: T2, ERK1 (Homo sapiens, UniProt P27361); experiment: Biacore direct interaction with recombinant ERK1; type: binding
From the text: as §1

[4] = Predicted metabolic stability, mouse hepatic microsomes; type: in vitro ADME; details: mouse hepatic microsomes 0.33 mg prot/ml; compound 10^-7 M; NADPH; 0-60 min
Method: (§2) The predicted metabolic stability is tested by incubation of the compounds at a concentration of 10^−7M in the presence of mouse, rat or human hepatic microsomes (0.33 mg of prot/ml). After addition of NADPH (nicotinamide adenine dinucleotide phosphate, reduced form), samples are taken at 0, 5, 15, 30 and 60 minutes. The enzymatic reaction is stopped using methanol (V/V). The protein is precipitated by centrifugation and the supernatant is analysed by LC-MS-MS.

[5] = Predicted metabolic stability, rat hepatic microsomes; type: in vitro ADME; details: rat hepatic microsomes 0.33 mg prot/ml; compound 10^-7 M; NADPH; 0-60 min
Method: as §2

[6] = target: T1, ERK2; experiment: ERK2 phosphorylation ex vivo in pig brain tissues; type: biochemical; set-up: host or cells: recombinant protein added to pig brain tissue preparations; details: 3×10^-9 M
From the text: (§3) The various brain structures are isolated, treated and suspended in a medium without phosphate, after inactivation of the phosphatases of the tissues. The tissues are cleared of their own ERK and p-ERK and placed in the presence of specific recombinant forms of ERK1, ERK2, p-ERK1 and p-ERK2.
(§4) The phosphorylation capacities are studied in the presence and absence of the compound of Example 1 by means of antibodies that allow evaluation of non-phosphorylated and phosphorylated ERK1 and ERK2. • 2. Results

[7] = target: T2, ERK1; experiment: ERK1 phosphorylation ex vivo in pig brain tissues; type: biochemical; set-up: host or cells: recombinant protein added to pig brain tissue preparations; details: 3×10^-9 M
From the text: as §3, §4

[8] = Predicted metabolic stability, human hepatic microsomes; type: in vitro ADME; details: human hepatic microsomes 0.33 mg prot/ml; compound 10^-7 M; NADPH; 0-60 min
Method: as §2

[9] = test system: confluent endothelial cells from bovine capillaries; experiment: Predicted crossing of the blood-brain barrier (BBB); type: in vitro ADME; set-up: key: high; intermediate; low; details: 20 μM in upper compartment; filter with bovine capillary endothelial cells; 10-60 min
Method: The substances are incubated at 20 μM in the upper compartment of a double container, the upper compartment being separated from the lower compartment either solely by a polycarbonate filter or by the same filter covered with confluent endothelial cells from bovine capillaries. Evaluation of the permeability kinetics is carried out by means of LC-MS-MS quantification of the unchanged substance in the lower compartment after 10, 20, 30, 40 and 60 minutes.

[10] = pig brain prefrontal cortex ex vivo

T2 sequence (P27361 whole entry, species assumed): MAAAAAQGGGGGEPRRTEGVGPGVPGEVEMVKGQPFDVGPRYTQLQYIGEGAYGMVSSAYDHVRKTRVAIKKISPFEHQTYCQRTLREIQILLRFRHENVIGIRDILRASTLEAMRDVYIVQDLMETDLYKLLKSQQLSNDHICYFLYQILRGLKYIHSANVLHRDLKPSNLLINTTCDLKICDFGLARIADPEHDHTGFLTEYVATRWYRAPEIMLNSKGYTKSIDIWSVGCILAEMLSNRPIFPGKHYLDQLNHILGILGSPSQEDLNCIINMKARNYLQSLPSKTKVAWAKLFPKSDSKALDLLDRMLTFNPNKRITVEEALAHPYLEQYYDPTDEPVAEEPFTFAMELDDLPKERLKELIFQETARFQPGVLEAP
T1 sequence (P28482 whole entry, species assumed): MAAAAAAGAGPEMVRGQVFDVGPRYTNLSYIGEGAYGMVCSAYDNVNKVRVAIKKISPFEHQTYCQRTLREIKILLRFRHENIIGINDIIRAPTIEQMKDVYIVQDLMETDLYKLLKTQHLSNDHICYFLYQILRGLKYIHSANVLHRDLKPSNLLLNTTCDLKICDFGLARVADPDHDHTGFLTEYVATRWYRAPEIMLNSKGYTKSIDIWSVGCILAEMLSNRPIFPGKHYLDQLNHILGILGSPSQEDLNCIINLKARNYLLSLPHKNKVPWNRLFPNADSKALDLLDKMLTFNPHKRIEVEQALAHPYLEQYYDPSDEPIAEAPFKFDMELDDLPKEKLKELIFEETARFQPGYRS

SMILES: O=C(Nc1cccnc1)Nn1ccc2ccccc21 [Example 1, N-(1H-indol-1-yl)-N′-(3-pyridyl)urea]
- amount of TH in LC section 1, relative to the mean value of the control group [1]: 66%
- amount of TH in LC section 2, relative to the mean value of the control group [1]: 85%
- amount of TH in LC section 3, relative to the mean value of the control group [1]: 74%
- amount of TH in LC section 4, relative to the mean value of the control group [1]: 64%
- amount of TH in LC section 5, relative to the mean value of the control group [1]: 45%
- amount of TH in LC section 6, relative to the mean value of the control group [1]: 40%
- amount of TH in LC section 7, relative to the mean value of the control group [1]: 8%
- amount of TH in LC section 8, relative to the mean value of the control group [1]: 2%
- binding to ERK2 ([2]; non-phosphorylated recombinant ERK2 on chip, different concentrations): binds strongly
- binding to ERK2 when the corresponding phosphorylated ERK is added to the medium ([2]; p-ERK2 added to the medium): inhibited
- binding to ERK1 ([3]; non-phosphorylated recombinant ERK1 on chip, different concentrations): binds strongly
- binding to ERK1 when the corresponding phosphorylated ERK is added to the medium ([3]; p-ERK1 added to the medium): inhibited
- % metabolic stability predicted using hepatic microsomes, Mouse [4]: 78%
- % metabolic stability predicted using hepatic microsomes, Rat [5]: 78%
- phosphorylation of ERK2 in the hippocampus ([6]; pig brain hippocampus ex vivo): increases
- phosphorylation of ERK2 in the prefrontal cortex [6, 10]: increases
- phosphorylation of ERK2 in the striatum ([6]; pig brain striatum ex vivo): increases
- phosphorylation of ERK1 in the hippocampus ([7]; pig brain hippocampus ex vivo): increases
- phosphorylation of ERK1 in the prefrontal cortex [7, 10]: increases
- % metabolic stability predicted using hepatic microsomes, Human [8]: 72%
- degree of crossing of the BBB (category) [9]: high

SMILES: O=C(Nc1cccnc1)NN1CCc2ccccc21 [Example 2, N-(2,3-dihydro-1H-indol-1-yl)-N′-(3-pyridyl)urea]
- amount of TH in LC section 1, relative to the mean value of the control group [1]: 63%
- amount of TH in LC section 2, relative to the mean value of the control group [1]: 77%
- amount of TH in LC section 3, relative to the mean value of the control group [1]: 64%
- amount of TH in LC section 4, relative to the mean value of the control group [1]: 57%
- amount of TH in LC section 5, relative to the mean value of the control group [1]: 34%
- amount of TH in LC section 6, relative to the mean value of the control group [1]: 15%
- amount of TH in LC section 7, relative to the mean value of the control group [1]: 8%
- amount of TH in LC section 8, relative to the mean value of the control group [1]: 2%
- % metabolic stability predicted using hepatic microsomes, Mouse [4]: 85%
- % metabolic stability predicted using hepatic microsomes, Rat [5]: 55%
- % metabolic stability predicted using hepatic microsomes, Human [8]: 98%

SMILES: O=C(Nc1ccncc1)Nn1ccc2ccccc21 [Example 6, N-(1H-indol-1-yl)-N′-(4-pyridyl)urea]
- amount of TH in LC section 1, relative to the mean value of the control group [1]: 65%
- amount of TH in LC section 2, relative to the mean value of the control group [1]: 81%
- amount of TH in LC section 3, relative to the mean value of the control group [1]: 59%
- amount of TH in LC section 4, relative to the mean value of the control group [1]: 33%
- amount of TH in LC section 5, relative to the mean value of the control group [1]: 20%
- amount of TH in LC section 6, relative to the mean value of the control group [1]: 13%
- amount of TH in LC section 7, relative to the mean value of the control group [1]: 8%
- amount of TH in LC section 8, relative to the mean value of the control group [1]: 2%
- % metabolic stability predicted using hepatic microsomes, Mouse [4]: 77%
- % metabolic stability predicted using hepatic microsomes, Rat [5]: 73%
- % metabolic stability predicted using hepatic microsomes, Human [8]: 77%

SMILES: O=C(Nc1ccncc1)Nn1ccc2cc(Cl)ccc21 [Example 13, N-(5-chloro-1H-indol-1-yl)-N′-(4-pyridyl)urea]
- % metabolic stability predicted using hepatic microsomes, Mouse [4]: 84%
- % metabolic stability predicted using hepatic microsomes, Rat [5]: 89%
- % metabolic stability predicted using hepatic microsomes, Human [8]: 82%

SMILES: O=C(NCc1ccccn1)Nn1ccc2ccccc21 [Example 24, N-(1H-indol-1-yl)-N′-(2-pyridylmethyl)urea]
- amount of TH in LC section 1, relative to the mean value of the control group [1]: 74%
- amount of TH in LC section 2, relative to the mean value of the control group [1]: 78%
- amount of TH in LC section 3, relative to the mean value of the control group [1]: 68%
- amount of TH in LC section 4, relative to the mean value of the control group [1]: 45%
- amount of TH in LC section 5, relative to the mean value of the control group [1]: 29%
- amount of TH in LC section 6, relative to the mean value of the control group [1]: 19%
- amount of TH in LC section 7, relative to the mean value of the control group [1]: 5%
- amount of TH in LC section 8, relative to the mean value of the control group [1]: 7%
- % metabolic stability predicted using hepatic microsomes, Mouse [4]: 72%
- % metabolic stability predicted using hepatic microsomes, Rat [5]: 69%
- % metabolic stability predicted using hepatic microsomes, Human [8]: 67%
